Data published in PMC12696368, “Ancestral Chaperonins Provide the First Structural Glimpse into Early Multimeric Protein Evolution” (Molecular Biology and Evolution, 2025).

Columns and labels:
Test in all cases: phosphate release (BIOMOL GREEN), […]-60 °C
Type in all cases: biochemical
Details in all cases: 0.5 mM ATP, 5 mM MgCl2, 150 mM KCl, 50 mM HEPES pH 7.4
E. coli GroEL = target: T1, E. coli GroEL (Escherichia coli, UniProt P0A6F5)
T1 construct: recombinant, expressed and purified as the ancestral proteins (C-terminal His-tag, E. coli BL21 (DE3)); no GroES; double ring of two seven-subunit rings

ACI = target: T2, ACI (synthetic construct, UniProt Z9T0T8YL69)
T2 construct: ancestral reconstruction, C-terminal His-tag, expressed in E. coli BL21 (DE3); single heptameric ring

AFCB = target: T3, AFCB (synthetic construct, UniProt Z9BU06U866)
T3 construct: ancestral reconstruction, C-terminal His-tag, expressed in E. coli BL21 (DE3); 7-subunit double rings

ACIII = target: T4, ACIII (synthetic construct, UniProt Z9ZN04QL74)
T4 construct: ancestral reconstruction, C-terminal His-tag, expressed in E. coli BL21 (DE3); eight-subunit double rings
T4 sequence (Z9ZN04QL74 1-518): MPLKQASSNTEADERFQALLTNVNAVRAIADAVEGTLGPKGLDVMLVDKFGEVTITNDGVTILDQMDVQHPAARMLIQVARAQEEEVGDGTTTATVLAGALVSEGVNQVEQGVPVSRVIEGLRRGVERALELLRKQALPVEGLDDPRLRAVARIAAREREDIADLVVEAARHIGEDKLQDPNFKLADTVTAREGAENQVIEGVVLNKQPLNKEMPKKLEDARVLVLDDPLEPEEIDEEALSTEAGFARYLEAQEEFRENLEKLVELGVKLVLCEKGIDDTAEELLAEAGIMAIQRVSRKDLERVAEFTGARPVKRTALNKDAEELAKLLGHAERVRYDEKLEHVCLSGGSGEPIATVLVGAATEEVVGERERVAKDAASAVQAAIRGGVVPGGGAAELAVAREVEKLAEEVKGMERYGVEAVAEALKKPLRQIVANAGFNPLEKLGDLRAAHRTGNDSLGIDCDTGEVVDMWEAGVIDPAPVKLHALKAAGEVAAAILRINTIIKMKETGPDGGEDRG

T1 sequence (P0A6F5 2-548): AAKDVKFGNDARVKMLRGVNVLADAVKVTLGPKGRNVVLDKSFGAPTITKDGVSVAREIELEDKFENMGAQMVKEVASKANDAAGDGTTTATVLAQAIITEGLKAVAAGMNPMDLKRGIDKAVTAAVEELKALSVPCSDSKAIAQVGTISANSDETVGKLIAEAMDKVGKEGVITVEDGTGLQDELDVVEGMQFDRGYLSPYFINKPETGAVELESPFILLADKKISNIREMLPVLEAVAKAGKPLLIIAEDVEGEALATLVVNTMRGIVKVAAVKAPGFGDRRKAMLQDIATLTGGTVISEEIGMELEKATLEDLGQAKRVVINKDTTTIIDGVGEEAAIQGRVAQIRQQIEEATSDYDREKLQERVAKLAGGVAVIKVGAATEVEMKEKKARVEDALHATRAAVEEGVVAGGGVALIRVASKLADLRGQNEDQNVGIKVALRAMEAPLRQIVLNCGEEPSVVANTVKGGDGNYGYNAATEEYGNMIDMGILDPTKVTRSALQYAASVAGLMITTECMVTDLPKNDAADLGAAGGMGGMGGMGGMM

SMILES: Nc1ncnc2c1ncn2[C@@H]1O[C@H](COP(=O)(O)OP(=O)(O)OP(=O)(O)O)[C@@H](O)[C@H]1O [ATP]
- phosphate release (BIOMOL GREEN), 30-60 °C (E. coli GroEL): E. coli GroEL, ACI and ACIII exhibited similar hydrolysis patterns
- phosphate release (BIOMOL GREEN), 30-60 °C (ACI): E. coli GroEL, ACI and ACIII exhibited similar hydrolysis patterns
- phosphate release (BIOMOL GREEN), 30-60 °C (AFCB): showed the highest rate of ATP hydrolysis, followed by AFCB
- phosphate release (BIOMOL GREEN), 30-60 °C (ACIII): E. coli GroEL, ACI and ACIII exhibited similar hydrolysis patterns
